Laboratory results: patent publication US20130190289A1, “COMPOUNDS AND METHODS FOR THE TREATMENT OR PREVENTION OF FLAVIVIRUS INFECTIONS” (priority 2010, published 2013)
Like-named read-outs stand apart in the source and are kept apart here.

What was measured:
[1] = tested on: HCV replicon (genotype 1b) in Huh7 cell line ET; assay: microbe, parasite or virus in culture; format: cell-based, HCV genotype 1b; settings: Hepatitis C virus
[2] = [3H]Thymidine incorporation assay (cell toxicity); settings: human
[3] = Huh-7, read-out: HCV-Replicon-(Luci-ET) 1b_IC50
[4] = Huh-7, 96 h, read-out: HCV-Replicon (Luci-ET)-1b_IC50

SMILES	IC50 [1, 3] [µM]	CC50 at 72 h [2] [µM]	IC50 [1, 4] [µM]
COC[C@@H](C(=O)N1CCOCC1)N(C(=O)C1CCCCC1)c1cc(C#CC(C)(C)C)sc1C(=O)O [Compound 24, 3-[Cyclohexanecarbonyl-[(1S)-1-(methoxymethyl)-2-morpholino-2-oxo-ethyl]amino]-5-(3,3-dimethylbut-1-ynyl)thiophene-2-carboxylic acid]	< 0.1	> 100	–
CCNC(=O)C[C@H](C)N(c1cc(C#CC(C)(C)C)sc1C(=O)O)C(=O)[C@H]1CC[C@H](C)CC1 [Compound 111, 5-(3,3-Dimethylbut-1-ynyl)-3-[[(1S)-3-(ethylamino)-1-methyl-3-oxo-propyl]-(trans-4-methylcyclohexanecarbonyl)amino]thiophene-2-carboxylic acid]	< 0.1	> 100	–
CC(C)(C)C#Cc1cc(N(CC(=O)N2CCCCC2)C(=O)[C@H]2CC[C@H](C)CC2)c(C(=O)O)s1 [Compound 46]	< 0.1	> 100	–
CC[C@@H](C(=O)N(C)C1CCOCC1)N(c1cc(C#CC(C)(C)C)sc1C(=O)O)C(=O)[C@H]1CC[C@H](C)CC1 [Compound 81, 5-(3,3-Dimethylbut-1-ynyl)-3-[(trans-4-methylcyclohexanecarbonyl)-[(1S)-1-[methyl(tetrahydropyran-4-yl)carbamoyl]propyl]amino]thiophene-2-carboxylic acid]	< 0.1	10 to 100	–
CC(CC(=O)N1CCCC1)N(c1cc(C#CC(C)(C)C)sc1C(=O)O)C(=O)[C@H]1CC[C@H](C)CC1 (relative stereo) [Compound 101, 5-(3,3-dimethylbut-1-yn-1-yl)-3-((trans)-4-methyl-N-(4-oxo-4-(pyrrolidin-1-yl)butan-2-yl)cyclohexanecarboxamido)thiophene-2-carboxylic acid]	< 0.1	10 to 100	–
CC(C)[C@@H](C(=O)N1CCOCC1)N(c1cc(C#CC(C)(C)C)sc1C(=O)O)C(=O)[C@H]1CC[C@H](C)CC1 [Compound 85, 5-(3,3-Dimethylbut-1-ynyl)-3-[(trans-4-methylcyclohexanecarbonyl)-[(1S)-2-methyl-1-(morpholine-4-carbonyl)propyl]amino]thiophene-2-carboxylic acid]	< 0.1	10 to 100	–
C[C@@H](C(=O)N(C)CCO)N(c1cc(C#CC(C)(C)C)sc1C(=O)O)C(=O)[C@H]1CC[C@H](C)CC1 [Compound 37, 5-(3,3-Dimethylbut-1-ynyl)-3-[[(1S)-2-[2-hydroxyethyl(methyl)amino]-1-methyl-2-oxo-ethyl]-(trans-4-methylcyclohexanecarbonyl)amino]thiophene-2-carboxylic acid]	< 0.1	> 100	–
C[C@@H](CC(=O)N1CCOCC1)N(c1cc(C#CC(C)(C)C)sc1C(=O)O)C(=O)[C@H]1CC[C@H](C)CC1 [Compound 105, 5-(3,3-Dimethylbut-1-ynyl)-3-[(trans-4-methylcyclohexanecarbonyl)-[(1S)-1-methyl-3-morpholino-3-oxo-propyl]amino]thiophene-2-carboxylic acid]	< 0.1	> 100	–
CC(C)(C)C#Cc1cc(N(CC(=O)N2CCSCC2)C(=O)[C@H]2CC[C@H](C)CC2)c(C(=O)O)s1 [Compound 127, 5-(3,3-dimethylbut-1-ynyl)-3-[(trans-4-methylcyclohexanecarbonyl)-(2-oxo-2-thiomorpholino-ethyl)amino]thiophene-2-carboxylic acid]	–	10 to 100	< 0.1
CC[C@@H](C(=O)N1CCOCC1)N(c1cc(C#CC(C)C)sc1C(=O)O)C(=O)[C@H]1CC[C@H](C)CC1 [Compound 90, 5-(3-Methylbut-1-ynyl)-3-[(trans-4-methylcyclohexanecarbonyl)-[(1S)-1-(morpholine-4-carbonyl)propyl]amino]thiophene-2-carboxylic acid]	< 0.1	> 100	–
C[C@H](C(=O)N(C)C)N(c1cc(C#CC(C)(C)C)sc1C(=O)O)C(=O)[C@H]1CC[C@H](C)CC1 [Compound 2, 5-(3,3-Dimethyl-but-1-ynyl)-3-[((R)-1-dimethylcarbamoyl-ethyl)-(trans-4-methyl-cyclohexanecarbonyl)-amino]-thiophene-2-carboxylic acid]	< 0.1	10 to 100	–
CN(C)CCN1CCCC[C@H](N(c2cc(C#CC(C)(C)C)sc2C(=O)O)C(=O)[C@H]2CC[C@H](C)CC2)C1=O [Compound 145, (S)-5-(3,3-Dimethylbut-1-ynyl)-3-((trans)-4-methyl-N-(1-(2-dimethylaminoethyl)-2-oxoazepan-3-yl)cyclohexanecarboxamido)thiophene-2-carboxylic acid]	–	10 to 100	< 0.1
CCC[C@@H](C(=O)N(C)C)N(c1cc(C#CC(C)(C)C)sc1C(=O)O)C(=O)[C@H]1CC[C@H](C)CC1 [Compound 68, 5-(3,3-Dimethylbut-1-ynyl)-3-[[(1S)-1-(dimethylcarbamoyl)butyl]-(trans-4-methylcyclohexanecarbonyl)amino]thiophene-2-carboxylic acid]	< 0.1	10 to 100	–
COC1CCN(C(=O)CN(c2cc(C#CC(C)(C)C)sc2C(=O)O)C(=O)[C@H]2CC[C@H](C)CC2)CC1 [Compound 44]	< 0.1	> 100	–
C[C@@H](C(=O)NC1CCOCC1)N(c1cc(C#CC(C)(C)C)sc1C(=O)O)C(=O)[C@H]1CC[C@H](C)CC1 [Compound 19, 5-(3,3-Dimethylbut-1-ynyl)-3-[(trans-4-methylcyclohexanecarbonyl)-[(1S)-1-methyl-2-oxo-2-(tetrahydropyran-4-ylamino)ethyl]amino]thiophene-2-carboxylic acid]	< 0.1	> 100	–
C[C@@H](CC(=O)N(C)C)N(c1cc(C#CC(C)(C)C)sc1C(=O)O)C(=O)[C@H]1CC[C@H](C)CC1 [Compound 96, 3-((trans)-N—((S)-4-(dimethylamino)-4-oxobutan-2-yl)-4-methylcyclohexanecarboxamido)-5-(3,3-dimethylbut-1-yn-1-yl)thiophene-2-carboxylic acid]	< 0.1	10 to 100	–
CNC(=O)CN(C(=O)C1CCC(C)CC1)c1cc(C#CC(C)C)sc1C(=O)O (stereo not shown) [Compound 70]	< 0.1	> 100	–
C[C@@H](C(=O)N1CCCC1)N(c1cc(C#CC(C)(C)C)sc1C(=O)O)C(=O)[C@H]1CC[C@H](C)CC1 [Compound 9, 5-(3,3-Dimethylbut-1-ynyl)-3-[(trans-4-methylcyclohexanecarbonyl)-[(1S)-1-methyl-2-oxo-2-pyrrolidin-1-yl-ethyl]amino]thiophene-2-carboxylic acid]	< 0.1	> 100	–
C[C@@H](O)[C@@H](C(=O)N1CCOCC1)N(c1cc(C#CC(C)(C)C)sc1C(=O)O)C(=O)[C@H]1CC[C@H](C)CC1 [Compound 60, 5-(3,3-Dimethylbut-1-ynyl)-3-[[(1S,2R)-2-hydroxy-1-(morpholine-4-carbonyl)propyl]-(trans-4-methylcyclohexanecarbonyl)amino]thiophene-2-carboxylic acid]	< 0.1	> 100	–
CC1(C#Cc2cc(N(CC(=O)N3CCOCC3)C(=O)[C@H]3CC[C@H](C)CC3)c(C(=O)O)s2)CC1 [Compound 144, 3-[(trans-4-methylcyclohexanecarbonyl)-(2-morpholino-2-oxo-ethyl)amino]-5-[2-(1-methylcyclopropyl)ethynyl]thiophene-2-carboxylic acid]	–	> 100	< 0.1
CO[C@@H](C)[C@H](C(=O)N1CCOCC1)N(c1cc(C#CC(C)(C)C)sc1C(=O)O)C(=O)[C@H]1CC[C@H](C)CC1 [Compound 72, 5-(3,3-dimethylbut-1-ynyl)-3-[[(1R,2S)-2-methoxy-1-(morpholine-4-carbonyl)propyl]-(trans-4-methylcyclohexanecarbonyl)amino]thiophene-2-carboxylic acid]	< 0.1	> 100	–
C[C@@H](C(=O)NC1CCOC1)N(c1cc(C#CC(C)(C)C)sc1C(=O)O)C(=O)[C@H]1CC[C@H](C)CC1 (stereo partly drawn) [Compound 30, 5-(3,3-Dimethylbut-1-ynyl)-3-[(trans-4-methylcyclohexanecarbonyl)-[(1S)-1-methyl-2-oxo-2-(tetrahydrofuran-3-ylamino)ethyl]amino]thiophene-2-carboxylic acid]	< 0.1	> 100	–
CC[C@@H](C(=O)N(C)CC1CCOC1)N(c1cc(C#CC(C)(C)C)sc1C(=O)O)C(=O)[C@H]1CC[C@H](C)CC1 (stereo partly drawn) [Compound 80, 5-(3,3-Dimethylbut-1-ynyl)-3-[(trans-4-methylcyclohexanecarbonyl)-[(1S)-1-[methyl(tetrahydrofuran-3-ylmethyl)carbamoyl]propyl]amino]thiophene-2-carboxylic acid]	< 0.1	> 100	–
CC[C@@H](C(=O)N(C)C1CCN(C)CC1)N(c1cc(C#CC(C)(C)C)sc1C(=O)O)C(=O)[C@H]1CC[C@H](C)CC1 [Compound 76, 5-(3,3-Dimethylbut-1-ynyl)-3-[(trans-4-methylcyclohexanecarbonyl)-[(1S)-1-[methyl-(1-methyl-4-piperidyl)carbamoyl]propyl]amino]thiophene-2-carboxylic acid]	< 0.1	10 to 100	–
C[C@@H](CC(=O)N1CCN(C)CC1)N(c1cc(C#CC(C)(C)C)sc1C(=O)O)C(=O)[C@H]1CC[C@H](C)CC1 [Compound 110, 5-(3,3-Dimethylbut-1-ynyl)-3-[(trans-4-methylcyclohexanecarbonyl)-[(1S)-1-methyl-3-(4-methylpiperazin-1-yl)-3-oxo-propyl]amino]thiophene-2-carboxylic acid]	< 0.1	> 100	–
CC(C)[C@@H](C(=O)N(C)C)N(c1cc(C#CC(C)(C)C)sc1C(=O)O)C(=O)[C@H]1CC[C@H](C)CC1 [Compound 86, 5-(3,3-Dimethylbut-1-ynyl)-3-[[(1S)-1-(dimethylcarbamoyl)-2-methyl-propyl]-(trans-4-methylcyclohexanecarbonyl)amino]thiophene-2-carboxylic acid]	< 0.1	10 to 100	–
